Assay results as given in ChEMBL document CHEMBL1141981, “Studies on synthesis and evaluation of quantitative structure-activity relationship of 5-[(3'-chloro-4',4'-disubstituted-2-oxoazetidinyl)(N-nitro)amino]-6-hydroxy-3-alkyl/aryl[1,3]azaphospholo[1,5-a]pyridin-1-yl-phosphorus dichlorides” (2005).
Several values for one entry are separate records, joined by “and”; a condition that tells them apart may be missing. Identical values can stand only once.

Columns and labels:
Type in all cases: functional
[1] = Minimum inhibitory concentration against Candida albicans
Bacillus subtilis = test: Minimum inhibitory concentration against Bacillus subtilis
Staphylococcus aureus = test: Minimum inhibitory concentration against Staphylococcus aureus

Row | SMILES | -Log MIC [1] | -Log MIC (Bacillus subtilis) | -Log MIC (Staphylococcus aureus)
1 | Clc1ccccc1C(c1ccccc1)(c1ccccc1)n1ccnc1 | 3.14 µg ml-1 and 3.24 µg ml-1 |  | 
2 | CC1(C)S[C@@H]2[C@H](NC(=O)[C@H](N)c3ccccc3)C(=O)N2[C@H]1C(=O)O [AMPICILLIN] |  | 4.606 ug ml-1 | 3.097 ug ml-1
